This is an account of results in ChEMBL document CHEMBL5715954, “Silencing c-Myc translation as a therapeutic strategy through targeting PI3Kδ and CK1ε in hematological malignancies” (Blood, 2017).

Parameters in all cases: scale not given: the % may be the effect or the level left
The target of experiment [1] is T1, Kinase suppressor of Ras 1 (Homo sapiens) (UniProt Q8IVT5).
T1 sequence (whole entry): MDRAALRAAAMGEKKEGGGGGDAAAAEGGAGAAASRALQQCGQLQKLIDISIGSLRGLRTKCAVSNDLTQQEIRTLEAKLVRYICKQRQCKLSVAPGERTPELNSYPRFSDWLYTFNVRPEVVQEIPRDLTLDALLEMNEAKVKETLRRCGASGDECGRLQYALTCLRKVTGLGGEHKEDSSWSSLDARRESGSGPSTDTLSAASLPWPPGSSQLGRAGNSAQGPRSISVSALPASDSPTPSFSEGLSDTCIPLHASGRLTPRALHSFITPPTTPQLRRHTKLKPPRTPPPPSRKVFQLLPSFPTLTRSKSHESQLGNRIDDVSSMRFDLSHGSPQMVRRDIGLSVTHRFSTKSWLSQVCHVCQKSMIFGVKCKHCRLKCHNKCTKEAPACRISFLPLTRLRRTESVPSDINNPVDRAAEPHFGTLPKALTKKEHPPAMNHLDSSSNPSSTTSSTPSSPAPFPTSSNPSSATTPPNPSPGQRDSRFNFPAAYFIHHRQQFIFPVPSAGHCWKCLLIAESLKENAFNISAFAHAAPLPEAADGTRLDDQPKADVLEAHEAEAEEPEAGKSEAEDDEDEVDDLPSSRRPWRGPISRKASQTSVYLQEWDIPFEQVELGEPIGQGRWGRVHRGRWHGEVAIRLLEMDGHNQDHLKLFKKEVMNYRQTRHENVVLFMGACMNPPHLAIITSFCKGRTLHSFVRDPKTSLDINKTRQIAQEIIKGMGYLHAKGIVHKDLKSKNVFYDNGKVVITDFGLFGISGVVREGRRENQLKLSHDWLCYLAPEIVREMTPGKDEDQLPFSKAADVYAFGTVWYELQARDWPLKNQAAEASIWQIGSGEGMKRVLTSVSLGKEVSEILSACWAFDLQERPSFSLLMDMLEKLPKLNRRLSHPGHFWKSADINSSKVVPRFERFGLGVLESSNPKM
Nature of the experiment: Inhibition of human KSR1 assessed as enzyme activity at 1 uM using KRREILSRRPSYR as substrate preincubated for 20 mins followed by [gamma-33P]-ATP addition and measured after 120 mins by radiometric Hot-SpotSM Kinase assay relative to control.

The target of experiment [2] is T2, TGF-beta receptor type-1 (Homo sapiens) (UniProt P36897).
T2 sequence (whole entry): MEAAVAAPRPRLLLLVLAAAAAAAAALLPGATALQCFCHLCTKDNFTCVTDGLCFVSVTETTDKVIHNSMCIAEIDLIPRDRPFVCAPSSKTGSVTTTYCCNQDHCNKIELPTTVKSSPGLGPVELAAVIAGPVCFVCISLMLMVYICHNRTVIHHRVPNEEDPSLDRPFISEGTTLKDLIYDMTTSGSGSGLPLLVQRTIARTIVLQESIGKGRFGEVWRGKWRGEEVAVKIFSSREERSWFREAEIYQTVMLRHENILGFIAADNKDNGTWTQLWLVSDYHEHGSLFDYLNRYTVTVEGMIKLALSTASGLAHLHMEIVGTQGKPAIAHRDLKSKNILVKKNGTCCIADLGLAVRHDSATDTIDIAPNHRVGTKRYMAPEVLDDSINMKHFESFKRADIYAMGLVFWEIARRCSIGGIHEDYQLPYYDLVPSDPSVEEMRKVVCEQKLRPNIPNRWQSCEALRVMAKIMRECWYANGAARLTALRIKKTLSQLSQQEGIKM
The experiment can be described thus: Inhibition of human ALK5 assessed as enzyme activity at 1 uM using casein as substrate preincubated for 20 mins followed by [gamma-33P]-ATP addition and measured after 120 mins by radiometric Hot-SpotSM Kinase assay relative to control.

Experiment [3] deals with T3, Serine/threonine-protein kinase 3 (Homo sapiens) (UniProt Q13188).
T3 sequence (whole entry): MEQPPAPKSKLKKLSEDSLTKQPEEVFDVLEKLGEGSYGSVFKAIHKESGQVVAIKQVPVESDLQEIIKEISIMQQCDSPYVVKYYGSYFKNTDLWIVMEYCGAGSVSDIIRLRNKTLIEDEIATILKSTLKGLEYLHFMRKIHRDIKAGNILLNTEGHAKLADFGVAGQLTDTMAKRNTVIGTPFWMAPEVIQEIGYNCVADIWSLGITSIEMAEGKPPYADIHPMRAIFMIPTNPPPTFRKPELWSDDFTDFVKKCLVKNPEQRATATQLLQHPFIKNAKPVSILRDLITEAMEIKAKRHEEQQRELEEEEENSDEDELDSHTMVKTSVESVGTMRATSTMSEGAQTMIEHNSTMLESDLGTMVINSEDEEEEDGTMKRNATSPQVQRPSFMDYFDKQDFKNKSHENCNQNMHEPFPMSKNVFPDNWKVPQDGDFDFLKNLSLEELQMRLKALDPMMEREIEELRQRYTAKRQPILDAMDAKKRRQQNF
The experiment can be described thus: Inhibition of human MST2 assessed as enzyme activity at 1 uM using myelin basic protein as substrate preincubated for 20 mins followed by [gamma-33P]-ATP addition and measured after 120 mins by radiometric Hot-SpotSM Kinase assay relative to control.

The target of experiment [4] is T4, Mitogen-activated protein kinase 15 (Homo sapiens) (UniProt Q8TD08).
T4 sequence (whole entry): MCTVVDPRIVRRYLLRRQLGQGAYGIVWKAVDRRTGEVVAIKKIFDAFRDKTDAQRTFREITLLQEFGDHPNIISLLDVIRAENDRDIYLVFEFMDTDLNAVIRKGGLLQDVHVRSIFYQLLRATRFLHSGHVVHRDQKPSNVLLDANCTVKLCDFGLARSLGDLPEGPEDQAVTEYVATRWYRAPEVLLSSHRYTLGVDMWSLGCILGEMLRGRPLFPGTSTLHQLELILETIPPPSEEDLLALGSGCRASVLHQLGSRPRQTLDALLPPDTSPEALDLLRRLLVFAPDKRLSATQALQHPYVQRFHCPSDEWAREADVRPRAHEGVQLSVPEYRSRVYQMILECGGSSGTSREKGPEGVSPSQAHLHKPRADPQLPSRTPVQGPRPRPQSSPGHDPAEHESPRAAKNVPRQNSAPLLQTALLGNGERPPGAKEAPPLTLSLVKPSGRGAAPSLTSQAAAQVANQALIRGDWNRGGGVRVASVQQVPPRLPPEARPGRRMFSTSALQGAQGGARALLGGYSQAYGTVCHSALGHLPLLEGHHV
The experiment can be described thus: Inhibition of human ERK7 assessed as enzyme activity at 1 uM using myelin basic protein as substrate preincubated for 20 mins followed by [gamma-33P]-ATP addition and measured after 120 mins by radiometric Hot-SpotSM Kinase assay relative to control.

The target of experiment [5] is Dual specificity mitogen-activated protein kinase kinase 2 (Homo sapiens) (UniProt P36507). The experiment can be described thus: Inhibition of human MEK2 assessed as enzyme activity at 1 uM using ERK2 (K52R) as substrate preincubated for 20 mins followed by [gamma-33P]-ATP addition and measured after 120 mins by radiometric Hot-SpotSM Kinase assay relative to control.
Chain of Dual specificity mitogen-activated protein kinase kinase 2 (Homo sapiens) (P36507 whole entry): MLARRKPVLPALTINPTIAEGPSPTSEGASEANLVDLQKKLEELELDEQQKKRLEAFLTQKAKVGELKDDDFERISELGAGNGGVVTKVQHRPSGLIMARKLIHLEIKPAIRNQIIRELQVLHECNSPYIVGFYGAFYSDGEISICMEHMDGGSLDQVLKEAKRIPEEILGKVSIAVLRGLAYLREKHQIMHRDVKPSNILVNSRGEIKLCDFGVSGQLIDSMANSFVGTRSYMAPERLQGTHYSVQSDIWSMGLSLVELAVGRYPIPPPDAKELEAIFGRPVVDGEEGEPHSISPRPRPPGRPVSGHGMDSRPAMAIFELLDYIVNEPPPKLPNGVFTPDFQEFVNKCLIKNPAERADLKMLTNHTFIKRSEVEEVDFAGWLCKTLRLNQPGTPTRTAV

`C[C@H](Nc1ncnc2nc[nH]c12)c1cc2cccc(Cl)c2c(=O)n1-c1ccccc1`: the Activity worked out at 99.2% in experiment [1]; 108% in experiment [2]; 94.5% in experiment [3]; 98.5% in experiment [4]; 90% in experiment [5].

Take `CC[C@H](Nc1ncnc2[nH]cnc12)c1nc2cccc(F)c2c(=O)n1-c1ccccc1`: the Activity in experiment [1] stood at 102%; in experiment [2], 108%; in experiment [3], 96.9%; in experiment [4], 94.3%; in experiment [5], 91.5%.

Turning to `CC(C)Oc1ccc(-c2nn([C@@H](C)c3oc4ccc(F)cc4c(=O)c3-c3cccc(F)c3)c3ncnc(N)c23)cc1F` [UMBRALISIB], the Activity in experiment [1] amounted to 103%; in experiment [2], 109%; in experiment [3] it was 97.4%; in experiment [4], 88.3%; in experiment [5], 90.4%.
